Data: ChEMBL document CHEMBL4417631, “Oral peptide inhibitors of interleukin-23 receptor and their use to treat inflammatory bowel diseases” (2017)
Where a SMILES comes first, the peptide text is derived from it.

Molecular target: T1, Interleukin-23 receptor (Homo sapiens, UniProt Q5VWK5)
T1 sequence (Q5VWK5 whole entry): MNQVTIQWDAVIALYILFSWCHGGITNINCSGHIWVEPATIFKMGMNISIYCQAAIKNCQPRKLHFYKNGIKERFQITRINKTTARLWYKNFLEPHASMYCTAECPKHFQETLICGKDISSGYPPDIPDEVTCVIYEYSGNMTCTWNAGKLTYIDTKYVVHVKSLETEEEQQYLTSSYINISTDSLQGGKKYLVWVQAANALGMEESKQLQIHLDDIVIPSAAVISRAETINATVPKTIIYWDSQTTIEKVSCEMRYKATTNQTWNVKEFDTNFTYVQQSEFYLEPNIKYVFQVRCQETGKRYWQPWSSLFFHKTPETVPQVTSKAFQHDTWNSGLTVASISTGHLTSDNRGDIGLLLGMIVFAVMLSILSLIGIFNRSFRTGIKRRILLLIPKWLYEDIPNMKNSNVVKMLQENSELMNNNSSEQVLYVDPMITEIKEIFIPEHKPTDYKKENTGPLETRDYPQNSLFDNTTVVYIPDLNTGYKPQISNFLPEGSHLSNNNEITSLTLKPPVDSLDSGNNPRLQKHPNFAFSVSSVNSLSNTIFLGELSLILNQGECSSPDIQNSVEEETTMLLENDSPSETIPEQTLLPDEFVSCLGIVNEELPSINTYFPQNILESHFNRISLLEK
Assay: Inhibition of interleukin-23 binding to human interleukin-23 receptor incubated for 2 hrs by competitive binding ELISA

Row | IC50 [µM] | Structure (SMILES)
1 | > 1 | CC(C)[C@H](NC(=O)[C@H](Cc1cnc[nH]1)NC(=O)[C@H](Cc1c[nH]c2ccccc12)NC(=O)[C@H](Cc1ccc(O)cc1)NC(=O)[C@H](CS)NC(=O)[C@H](CCC(=O)O)NC(=O)[C@H](Cc1c[nH]c2ccccc12)NC(=O)[C@H](CC(N)=O)NC(=O)CNC(=O)[C@@H](N)CS)C(=O)N[C@@H](Cc1ccc(O)cc1)C(=O)NCC(N)=O (H-CGNWECYWHVYG-NH2)
2 | < 0.5 | CC(=O)N[C@@H](CS)C(=O)N[C@@H](CCC(N)=O)C(=O)N[C@@H](CC(=O)O)C(=O)N[C@@H](Cc1c[nH]c2ccccc12)C(=O)N[C@@H](CCC(N)=O)C(=O)N[C@@H](CS)C(=O)N[C@@H](Cc1ccc(O)cc1)C(=O)N[C@@H](Cc1c[nH]c2ccccc12)C(=O)N[C@@H](CCCNC(=N)N)C(=O)N[C@@H](CCC(=O)O)C(=O)N[C@@H](CC(N)=O)C(=O)NCC(=O)NCCOCC(=O)N[C@H](CCCCN)C(N)=O
3 | > 1 | CC(C)[C@H](NC(=O)[C@H](Cc1cnc[nH]1)NC(=O)[C@H](Cc1c[nH]c2ccccc12)NC(=O)[C@H](Cc1ccc(O)cc1)NC(=O)[C@H](CS)NC(=O)[C@@H](NC(=O)[C@H](Cc1c[nH]c2ccccc12)NC(=O)[C@@H](NC(=O)[C@H](CCCNC(=N)N)NC(=O)[C@@H](N)CS)[C@@H](C)O)C(C)C)C(=O)N[C@@H](Cc1ccccc1)C(=O)NCC(N)=O (H-CRTWVCYWHVFG-NH2)
4 | < 0.5 | CC(=O)N[C@@H](CS)C(=O)N[C@@H](CCCCN)C(=O)N[C@H](C(=O)N[C@@H](Cc1c[nH]c2ccccc12)C(=O)N[C@H](C(=O)N[C@@H](CS)C(=O)N[C@@H](Cc1ccc(O)cc1)C(=O)N[C@@H](Cc1c[nH]c2ccccc12)C(=O)N[C@@H](Cc1cnc[nH]1)C(=O)N[C@@H](CCC(=O)O)C(=O)N[C@@H](Cc1ccccc1)C(=O)NCC(N)=O)[C@@H](C)O)[C@@H](C)O (Ac-CKTWTCYWHEFG-NH2)
5 | > 1 | CC(C)[C@H](NC(=O)[C@H](Cc1c[nH]c2ccccc12)NC(=O)[C@H](CC(=O)O)NC(=O)[C@H](C)NC(=O)[C@@H](N)CS)C(=O)N[C@@H](CS)C(=O)N[C@@H](Cc1ccc(O)cc1)C(=O)N[C@@H](Cc1cccc2ccccc12)C(=O)N(C)[C@@H](Cc1cnc[nH]1)C(=O)N[C@H](C(=O)N[C@@H](Cc1ccccc1)C(=O)O)[C@@H](C)O
6 | < 0.5 | CC(=O)N[C@@H](CS)C(=O)N[C@@H](C)C(=O)N[C@@H](CC(=O)O)C(=O)N[C@@H](Cc1c[nH]c2ccccc12)C(=O)N[C@H](C(=O)N[C@@H](CS)C(=O)N[C@@H](Cc1ccc(O)cc1)C(=O)N[C@@H](Cc1c[nH]c2ccccc12)C(=O)N[C@@H](Cc1cnc[nH]1)C(=O)N[C@H](C(=O)N[C@@H](Cc1ccccc1)C(=O)NCC(=O)NCCOCCC(=O)N[C@H](CCCNC(=N)N)C(=O)O)[C@@H](C)O)C(C)C
7 | < 0.5 | CC(=O)N[C@@H](CS)C(=O)N[C@@H](CCCNC(=N)N)C(=O)N[C@H](C(=O)N[C@@H](Cc1c[nH]c2ccccc12)C(=O)N[C@@H](CCC(N)=O)C(=O)N[C@@H](CS)C(=O)N[C@@H](Cc1ccc(O)cc1)C(=O)N[C@@H](Cc1c[nH]c2ccccc12)C(=O)N[C@@H](Cc1cnc[nH]1)C(=O)N[C@@H](CCC(=O)O)C(=O)N[C@@H](Cc1ccc(O)cc1)C(=O)NCC(N)=O)[C@@H](C)O (Ac-CRTWQCYWHEYG-NH2)
8 | > 1 | CC(=O)N[C@@H](CS)C(=O)N[C@@H](CCCNC(=N)N)C(=O)N[C@@H](CC(=O)O)C(=O)N[C@@H](Cc1c[nH]c2ccccc12)C(=O)N[C@@H](CCC(N)=O)C(=O)N[C@@H](CS)C(=O)N[C@@H](Cc1ccc(O)cc1)C(=O)N[C@@H](Cc1c[nH]c2ccccc12)C(=O)N[C@@H](CCCNC(=N)N)C(=O)N[C@H](CCCCN)C(=O)N[C@@H](Cc1ccccc1)C(=O)NCC(=O)NCCOCCC(=O)N[C@H](CCCCN)C(N)=O
9 | > 1 | CC(=O)N[C@@H](CS)C(=O)N[C@@H](CCC(N)=O)C(=O)N[C@H](C(=O)N[C@@H](Cc1c[nH]c2ccccc12)C(=O)N[C@@H](CCC(N)=O)C(=O)N[C@@H](CS)C(=O)N[C@@H](Cc1ccc(O)cc1)C(=O)N[C@@H](Cc1c[nH]c2ccccc12)C(=O)N[C@H](CCCNC(=N)N)C(=O)N[C@H](CCC(=O)O)C(=O)N[C@@H](CC(N)=O)C(=O)NCC(=O)NCCOCC(=O)N[C@H](CCCCN)C(N)=O)[C@@H](C)O
10 | < 0.5 | CC(=O)N[C@@H](CS)C(=O)N[C@@H](CCC(N)=O)C(=O)N[C@H](C(=O)N[C@@H](Cc1c[nH]c2ccccc12)C(=O)N[C@@H](CCC(N)=O)C(=O)N[C@@H](CS)C(=O)N[C@@H](Cc1ccc(O)cc1)C(=O)N[C@@H](Cc1c[nH]c2ccccc12)C(=O)N[C@@H](CCCNC(=N)N)C(=O)N[C@@H](CCC(=O)O)C(=O)N[C@@H](CC(N)=O)C(=O)NCC(N)=O)[C@@H](C)O (Ac-CQTWQCYWRENG-NH2)
11 | > 1 | CC(C)[C@H](NC(=O)[C@H](Cc1c[nH]c2ccccc12)NC(=O)[C@H](CC(=O)O)NC(=O)[C@H](C)NC(=O)[C@@H](N)CS)C(=O)N[C@@H](CS)C(=O)N[C@@H](Cc1ccc(O)cc1)C(=O)N[C@@H](Cc1cccc2ccccc12)C(=O)N[C@@H](Cc1cnc[nH]1)C(=O)N[C@H](C(=O)N[C@H](Cc1ccccc1)C(=O)O)[C@@H](C)O
12 | > 1 | CC(=O)N[C@@H](CS)C(=O)N[C@@H](C)C(=O)N[C@@H](CC(=O)O)C(=O)N[C@@H](Cc1c[nH]c2ccccc12)C(=O)N[C@H](C(=O)N[C@@H](CS)C(=O)N[C@@H](Cc1ccc(O)cc1)C(=O)N[C@@H](Cc1c[nH]c2ccccc12)C(=O)N[C@@H](CCCCN)C(=O)N[C@H](C(=O)N[C@@H](Cc1ccccc1)C(=O)NCC(=O)O)[C@@H](C)O)C(C)C
13 | 6 | CC(=O)N[C@@H](CS)C(=O)N[C@@H](CCC(N)=O)C(=O)N[C@H](C(=O)N[C@@H](Cc1c[nH]c2ccccc12)C(=O)N[C@@H](CCC(N)=O)C(=O)N[C@@H](CS)C(=O)N[C@@H](Cc1ccc(O)cc1)C(=O)N[C@@](C)(Cc1c[nH]c2ccccc12)C(=O)N[C@@H](CCCNC(N)=O)C(=O)N[C@@H](CCC(C)C)C(=O)N[C@@H](CC(N)=O)C(=O)NCC(=O)NCCC(=O)N[C@H](CCCCN)C(N)=O)[C@@H](C)O
14 | > 1 | CC(=O)N[C@@H](CS)C(=O)N[C@@H](C)C(=O)N[C@@H](CC(=O)O)C(=O)N[C@@H](Cc1c[nH]c2ccccc12)C(=O)N[C@H](C(=O)N[C@@H](CS)C(N)=O)C(C)C (Ac-CADWVC-NH2)
15 | > 30 | CC(=O)N[C@@H](CS)C(=O)N[C@@H](C)C(=O)N[C@@H](CC(=O)O)C(=O)N[C@@H](Cc1c[nH]c2ccccc12)C(=O)N[C@H](C(=O)N[C@@H](CS)C(=O)N[C@@H](Cc1ccc(O)cc1)C(N)=O)C(C)C
16 | 0.025 to 0.1 | CC(=O)NCCCC[C@H](NC(=O)[C@](C)(CCCCN)NC(=O)[C@H](Cc1ccc2ccccc2c1)NC(=O)[C@H](Cc1ccc(O)cc1)NC(=O)[C@@H]1CSCC[C@H](NC(C)=O)C(=O)N[C@@H](CCC(N)=O)C(=O)N[C@@H]([C@@H](C)O)C(=O)N[C@@H](Cc2c[nH]c3ccccc23)C(=O)N[C@@H](CCC(N)=O)C(=O)N1)C(=O)N[C@@H](CC(N)=O)C(=O)NCC(=O)NCC(=O)N[C@@H](CCC(=O)O)C(N)=O
17 | 0.922 | CC(=O)N[C@@H](CS)C(=O)N[C@@H](CCC(N)=O)C(=O)N[C@H](C(=O)N[C@@H](Cc1c[nH]c2ccccc12)C(=O)N[C@@H](CCC(N)=O)C(=O)N[C@@H](CS)C(=O)N[C@@H](Cc1ccc(O)cc1)C(=O)N[C@@H](Cc1c[nH]c2ccccc12)C(=O)N[C@@H](CCCNC(=N)N)C(=O)N[C@@H](CCCNC(=N)N)CC(=O)N[C@H](C(=O)N[C@@H](CC(N)=O)C(=O)NCC(=O)NCCOCC(=O)N[C@H](CCCCN)C(N)=O)C(C)C)[C@@H](C)O
18 | 7.57 | CSC[C@H](NC(=O)[C@H](CCC(N)=O)NC(=O)[C@H](Cc1c[nH]c2ccccc12)NC(=O)[C@@H](NC(=O)[C@H](CCCNC(=N)N)NC(=O)[C@H](C)NC(C)=O)[C@@H](C)O)C(=O)N[C@@H](Cc1ccc(O)cc1)C(=O)N[C@@H](Cc1c[nH]c2ccccc12)C(=O)N[C@@H](CCCNC(=N)N)C(=O)N[C@@H](CCCCN)C(=O)N[C@@H](Cc1ccccc1)C(=O)NCC(=O)NCCOCC(=O)N[C@H](CCCCN)C(N)=O
19 | > 1 | CC(=O)N[C@@H](CS)C(=O)N[C@@H](CCCNC(=N)N)C(=O)N[C@@H](CC(=O)O)C(=O)N[C@@H](Cc1c[nH]c2ccccc12)C(=O)N[C@@H](CCC(N)=O)C(=O)N[C@@H](CS)C(=O)N[C@@H](Cc1ccc(O)cc1)C(=O)N[C@@H](Cc1c[nH]c2ccccc12)C(=O)N[C@H](CCCNC(=N)N)C(=O)N[C@@H](CCCCN)C(=O)N[C@@H](Cc1ccccc1)C(=O)NCC(=O)NCCOCCC(=O)N[C@H](CCCCN)C(N)=O
20 | 0.5 to 1 | NC(=O)CNC(=O)[C@H](Cc1ccc(O)cc1)NC(=O)[C@H](Cc1cnc[nH]1)NC(=O)[C@H](Cc1cnc[nH]1)NC(=O)[C@H](Cc1c[nH]c2ccccc12)NC(=O)[C@H](Cc1ccc(O)cc1)NC(=O)[C@H](CS)NC(=O)[C@H](CCC(=O)O)NC(=O)[C@H](Cc1c[nH]c2ccccc12)NC(=O)[C@H](CC(N)=O)NC(=O)[C@H](CO)NC(=O)[C@@H](N)CS (H-CSNWECYWHHYG-NH2)
21 | < 0.5 | CC(=O)N[C@@H](CS)C(=O)N[C@H](C(=O)N[C@H](C(=O)N[C@@H](Cc1c[nH]c2ccccc12)C(=O)N[C@@H](CCC(=O)O)C(=O)N[C@@H](CS)C(=O)N[C@@H](Cc1ccc(O)cc1)C(=O)N[C@@H](Cc1c[nH]c2ccccc12)C(=O)N[C@@H](Cc1cnc[nH]1)C(=O)N[C@@H](CCC(=O)O)C(=O)N[C@@H](Cc1ccccc1)C(=O)NCC(N)=O)[C@@H](C)O)[C@@H](C)O (Ac-CTTWECYWHEFG-NH2)
